Measurements from patent US12551418B2, “Cosmetic containing ultraviolet wavelength converting substance and medicinal agent” (Shiseido Company, Ltd., priority 2019, dated 2026).

Legend:
Human dermal fibroblasts [1] = experiment: Influence of C-phycocyanin concentration and UV intensity on cell activity (Example 2); format: cell-based; conditions: UV 0-100 mJ/cm^2
Method: (§1) A cell sample was prepared as follows: • 1. Human dermal fibroblasts and human skin keratinocytes purchased from Kurabo Industries Ltd. were used. A cell suspension (1 mL) stored in liquid nitrogen was thawed in a water bath (37° C.) to an extent that small ice pellets remained, and then diluted with 9 mL of warm medium. • 2. The diluted suspension was mixed gently and then transferred to a T75 flask and incubated overnight at 37° C. • 3. The next day, the medium was replaced with 10 mL of fresh medium. • 4. The medium was replaced periodically (once every 2 days for fibroblasts and once every 2 to 3 days for keratinocytes) and cell proliferation was continued. Meanwhile, the cells were observed using a microscope, and it was confirmed that the cells grew in the correct form. • 5. After the cells reached about 80% confluence, the cells were passaged. The cells were passaged by washing the cells once with 10 mL of warm PBS, adding 5 mL of warm trypsin to a T75 flask, covering the bottom of the flask with a trypsin solution, followed by aspirating at room temperature for 1 minute. • 6. The flask was allowed to stand in an oven at 37° C. for (maximum) 2 minutes for fibroblasts and (maximum) 7 minutes for keratinocytes. The cells were observed using a microscope and confirmed to be small and oval. • 7. Thereafter, the side of the T75 flask was lightly tapped to release the cells. […]

Human dermal fibroblasts [2] = experiment: Restoration of cell activity decreased by UV irradiation (Example 3); format: cell-based; conditions: cells pre-irradiated 400 mJ/cm^2 without substance, then UV 0-200 mJ/cm^2 through 0.4% or 2% C-phycocyanin
Method: as §1

C-phycocyanin
cell activity (relative fluorescence intensity, AlamarBlue) (Human dermal fibroblasts [1]; 0.4% C-phycocyanin solution plate): the decrease in cell activity was inhibited | cell activity (relative fluorescence intensity, AlamarBlue) (Human dermal fibroblasts [1]; 2% C-phycocyanin solution plate, compared to no UV irradiation): the cell activity was even enhanced | cell activity (relative fluorescence intensity, AlamarBlue) (Human dermal fibroblasts [2]): cell activity was recovered
